Where two headings read alike, the source gives them in different places.
Experiments:
Format in all cases: cell-based, murine
Conditions in all cases: for IC50: Mus musculus
TNF-α release = test: TNF-α assay: TNF-α release in LPS-stimulated RAW264.7 macrophages (ELISA)
Method: (§1) Anti-inflammatory activity was determined in lipopolysaccharide (LPS) stimulated murine macrophages, RAW264.7 cells cultured in standard cell culture media (DMEM, Fetal bovine serum 5%) and incubated in the presence or absence of different test compounds/extracts and controls. The production of inflammatory mediators, including NO, cytokines TNFα and IL-6, were measured by established methods using commercial ELISA kits (Table 3). Each sample was tested with at least 6 concentrations (using 3 replicates; i.e., n=9), with relevant internal controls (Table 3). The cytotoxicity of each sample tested was determined by MTT assay.
(§2) Briefly, for the NO, TNFα and IL-6 assays the cultured RAW264.7 cells were counted and plated (0.8×10^5 cells/well) in 96 well plates and incubated for 48 hours. The medium was then aspirated and replaced with fresh medium followed by the addition of the test compounds. The compounds were incubated for 1 hour prior to the addition of the stimulant. The plates were then incubated for 18 hours and the supernatant analyzed for the inflammatory mediator of interest, the remaining cell viability was determined by MTT.
(§3) The data are presented as mean and standard error of mean (SEM). The dose response curves were fit using Graph Pad Prism. The 95% confidence intervals (CI) were calculated using the whole data set and give an estimate error in the IC50 value. The 95% CI for the IC50 where the IC50 was not reached in the testing concentrations require graphical extrapolation to calculate the IC50. Where the IC50 has been estimated by graphical extrapolation “˜” is used to indicate that it is an estimate and not experimentally determined, unless otherwise stated. The graphical extrapolation results in a wider 95% confidence interval.
(§4) The synergism combination index (CI) and isobologram IC50 weightings were calculated using Compsyn software. The dose response curve generated in GraphPad prism was transformed into 15 points representing the curve. These 15 points were then entered into the Compsyn program that generated a curve to fit the data points. This method was preferable to closely replicate the complete dose response curve in the synergy program. The Compsyn fit curve was then used for synergy calculations.
(§5) A CI value of less than 0.5 is considered highly synergistic, a CI of less than 1 indicates synergy, a CI of from 1.5 to 1 is considered additive, a CI of from 4 to 1.5 is indifferent and a CI greater than 4 is considered antagonism.

IL-6 release = test: IL-6 assay: IL-6 release in LPS-stimulated RAW264.7 macrophages (ELISA)
Method: as §1, §2, §3, §4, §5

NO release = test: Nitric oxide (NO) assay: NO release in LPS-stimulated RAW264.7 macrophages (Griess reagent)
Method: as §1, §2, §3, §4, §5

[1] = RAW264.7, 18 h, TNF-α inhibition, total concentration of the combination, Table 8, read-out: GraphPad IC50
[2] = RAW264.7, TNF-α inhibition, Compusyn fit curve, Table 8, read-out: Compusyn IC50
[3] = LPS-stimulated RAW264.7 cells, 18 h, Table 7, read-out: IC50 for TNF-α inhibition
[4] = RAW264.7, 18 h, IL-6 assay, total concentration of the combination, Table 11, read-out: GraphPad IC50
[5] = RAW264.7, IL-6 assay, Compusyn fit curve, Table 11, read-out: Compusyn IC50
[6] = LPS-stimulated RAW264.7 cells, 18 h, Table 10, read-out: IC50 for IL-6 inhibition
[7] = RAW264.7, 18 h, read-out: IC50 for NO inhibition
[8] = RAW264.7, read-out: Compusyn IC50

SMILES | IC50 (TNF-α release; [1]) | IC50 (TNF-α release; [2]) | IC50 (TNF-α release; [3]) | IC50 (IL-6 release; [4]) | IC50 (IL-6 release; [5]) | IC50 (IL-6 release; [6]) | IC50 (NO release; [7]) | IC50 (NO release; [8]) | Compusyn IC50 (TNF-α release; TNF-α assay, Table 9) | Compusyn IC50 (IL-6 release; IL-6 assay, Table 12) | Compusyn IC50 (NO release; NO assay, Table 6) | TNF-α inhibition and synergy, result in words (TNF-α release; LPS-stimulated RAW264.7 cells) | IL-6 inhibition and synergy, result in words (IL-6 release; LPS-stimulated RAW264.7 cells) | NO inhibition and synergy, result in words (NO release; LPS-stimulated RAW264.7 cells)
CCCCCc1cc(O)c2c(c1)OC(C)(C)[C@@H]1CCC(C)=C[C@@H]21 [THC, Δ-9-tetrahydrocannabinol] | 44 µg/mL | 45 µg/mL | 44 µg/mL | 4.2 µg/mL | 4.2 µg/mL | 4.2 µg/mL | 6.5 µg/mL | 6.5 µg/mL |  |  |  |  |  | 
C=CC(C)(O)CCC=C(C)C (stereo not drawn) [Linalool, linalool] | > 240 µg/mL | > 240 µg/mL | > 240 µg/mL | > 240 µg/mL | > 240 µg/mL | > 240 µg/mL | > 240 µg/mL | > 240 µg/mL | >240 µg/mL | >240 µg/mL | >240 µg/mL |  |  | 
CC(=N)NCc1cccc(CN)c1 [1400 W, N-(3-(Aminomethyl)benzyl)acetamidine] |  |  |  |  |  |  | 1.2 µg/mL |  |  |  |  |  |  | 
C=C(C)[C@@H]1CCC(C)=C[C@H]1c1c(O)cc(CCCCC)cc1O [CBD, cannabidiol] | 4.6 µg/mL | 4.6 µg/mL | 4.6 µg/mL | 1.4 µg/mL | 1.4 µg/mL | 1.4 µg/mL | 1.4 µg/mL | 1.4 µg/mL |  |  |  | most active compound for TNF-α inhibition | most active compound for IL-6 inhibition | most active compound for NO inhibition
C[C@@H]1C[C@H]2[C@@H]3CCC4=CC(=O)C=C[C@]4(C)[C@@]3(F)[C@@H](O)C[C@]2(C)[C@@]1(O)C(=O)CO [Dexamethasone, dexamethasone] |  |  | 2.7 µg/mL |  |  | 0.016 µg/mL |  |  |  |  |  |  |  | 
